One molecule from patent publication US20220265629A1, “TREATMENT OF SYSTOLIC DYSFUNCTION AND HEART FAILURE WITH REDUCED EJECTION FRACTION WITH THE COMPOUND (R)-4-(1-((3-(DIFLUOROMETHYL)-1-METHYL-1H-PYRAZOL-4-YL)SULFONYL)-1-FLUOROETHYL)-N-(ISOXAZOL-3-YL)PIPERIDINE-1-CARBOXAMIDE” (MyoKardia, Inc., priority 2019, published 2022) can be followed below.

In this data set the test system is healthy subjects. Briefly: Single ascending oral dose study in healthy volunteers: safety (AEs, ECG, hs-troponin I). The class given is in vivo, human. How it is done: PK and PD data were collected as described herein. […] Changes from Baseline at each postbaseline timepoint were assessed.
A 12-lead electrocardiogram (ECG) was obtained after the subjects had rested in a supine position for at least 10 minutes. […] Digital 12-lead ECG evaluations was performed after 10 minutes of rest at Screening, preclose on Day 1 (within 2 hours of dosing), and at various predetermined time points. Each time an ECG was completed, a 10-second paper ECG rhythm strip would also be obtained and maintained in the subject's source documentation.
The ECGs were transmitted to the core ECG laboratory who read the recordings in a blinded manner. An automated methodology was utilized with manual over-reading by a cardiologist. The following intervals were measured: RR, PR, QRS, and QT. Heart rate (HR) was calculated as 60/(RR×1000) (with RR expressed in msec) and rounded to the nearest integer.
Corrected QT interval (QTc) was calculated using the manually over-read QT values per the standard procedures of the central ECG laboratory. Each individual ECG QT value was corrected for HR. The measured QT data were corrected for HR using the Fridericia correction QTcF and the Bazzett method (QTcB) as per the following formulae/method (with QT, RR and QTc expressed in msec): […]
Any abnormal findings judged by the investigator to be clinically important were recorded as adverse events (AEs). AEs were mapped to system organ classes (SOCs) and preferred terms (PTs) using the Medical Dictionary for Regulatory Activities (MedDRA). AEs were monitored during the study and the data analyzed with respect to overall incidence, severity, and potential relationship to study medication. The blinded AEs were presented to the SRC for review after each cohort to aid in their decision on the dose of the subsequent cohort or if the study should be terminated. […] No ECG changes or symptoms were noted.
For the final analysis, the AEs were grouped by treatment group with all of the subjects who received placebo pooled as 1 group. AEs with onset on or after the first dose of study medication, or with an onset before the first dose of study medication that increased in severity on or after the first dose of study medication. Treatment-emergent AEs (defined as AEs starting […]) were summarized for the Safety Analysis Population by MedDRA SOC and PT, and by severity and relationship to treatment. Severe and life-threatening AEs, SAEs, and AEs leading to study withdrawal, if any, were presented in data listings.
Serum samples were drawn for hs-troponin I. Analyses were performed using the Abbott Architect STAT High Sensitivity Troponin I assay.

Consider `Cn1cc(S(=O)(=O)[C@@](C)(F)C2CCN(C(=O)Nc3ccon3)CC2)c(C(F)F)n1` [Compound I, (R)-4-(1-((3-(difluoromethyl)-1-methyl-1H-pyrazol-4-yl)sulfonyl)-1-fluoroethyl)-N-(isoxazol-3-yl)piperidine-1-carboxamide], for which the “AEs considered related to treatment” value (50 mg dose group (50.0%)) is 3 subjects. Also, the “serious AE” value (100 mg dose group) was “short duration of complete AV block”. In addition, the “AEs considered related to treatment” value (350 mg dose group (50.0%)) is reported as 3 subjects. Besides, the hs-troponin I concentration in one subject (525 mg group, 6 hours postdose, upper limit of normal 15 ng/L) turned out to be 16 ng/L. Under “3-525 mg”, the “ECG or ECG intervals including PR interval” value is on record as “no significant changes” and the “vital sign or safety laboratory parameters” value is recorded as “no clinically significant changes”. In addition, under “single doses up to 525 mg”, the tolerability entry is on record as “well-tolerated”. Further, under “upper range of normal 15 ng/L”, the “hs-troponin I, mild increase in one subject” value was determined as 16 ng/L.
